These results are taken from patent publication US20230286995A1, “METABOLICALLY STABLE PYRIMIDINYL DIHYDROQUINOXALINONES AS TUBULIN POLYMERIZATION INHIBITORS” (UNIVERSITY OF TENNESSEE RESEARCH FOUNDATION, priority 2022, published 2023).

“Also recorded” adds a separate entry of the source. Where two headings read alike, the source gives them in different places.

Data set [1] has as its system Mia PaCa-2 cells. The data set is described as follows: Scratch migration assay (PDAC). The format is cell-based, human. Conditions: 5m 2 nM, PTX 4 nM, 48 h. The procedure: The Mia PaCa-2 cells (25,000 cells/well) were seeded in 96-well plates and allowed to adhere overnight. At 80-90% confluence, scratch was made with a wound maker. After washing off the debris, medium was replaced and tested compounds were added. Cells were live monitored with IncuCyte and pictures obtained every 2 h. Compared with the control, the wound width of cells under different treatment conditions was quantified according to the endpoint width over starting point.

The test system of data set [2] is A-253 and Detroit 562. The data set is described as follows: Cytotoxicity in head and neck cancer cell lines. The settings on record: Homo sapiens; FIG. 39A; read-out: IC50 values, range over A-253 and Detroit 562. Type of data set: cell-based. On the procedure: A panel of dihydroquinoxalinones were tested in two head and neck cancer cell lines, A-253 and Detroit 562. A-253 cells are a human salivary epidermoid carcinoma cell line, whereas Detroit 562 is a head and neck squamous cell carcinoma (HNSCC). Oral cancer is the most common type of head and neck cancer and more than 90% of oral cancers are either oral or oropharyngeal squamous cell carcinoma (SCC). A major clinical dilemma is chemotherapy efficiency targeted for head and neck squamous cell carcinoma (HNSCC). The inability to successfully complete cancer treatment utilizing a standard surgical approach due to an advanced stage of HNSCC and/or resistance of SCC cells to conventional chemotherapy and/or radiotherapy leads to a continuous search for new compounds with cytostatic activity and minor side effects.
FIGS. 39B and 39C illustrate the graphical representation of the data. […] For example, at treatment levels as low of 0.5 nM, 12k was able to prevent head and neck cancer cell proliferation almost completely, whereas it required 5 nM of 17ya to achieve similar antiproliferation.

Data set [3] relates to MDA-MB-231/VxR xenografts. The data set is described as follows: Orthotopic MDA-MB-231/VxR xenograft model. The format is in vivo, NSG mice. Conditions: 5m IV 1×/wk; Compound 17ya 20 mg/kg 3×/wk.
The subject of data set [4] is MDA-MB-231 BrM2 brain metastases.
Data set [5] is described as follows: Microsomal stability assay. Conditions: Table 3; liver microsomes; mean (% CV). (In general: Microsomes from liver hold many membrane-bound enzymes, among them those of drug oxidation.)
The conditions of data set [6]: rats.
The test system of data set [7] is Mia PaCa-2. The data set is described as follows: Colony formation assay (PDAC). The format is cell-based, human. The settings on record: tested 1, 2.5, 5 nM. The procedure:
Cells were seeded at 1000 cells per well in 6-well plates in triplicates and treated with vehicle control or 1-5 nmol/L test compounds for 11 to 14 days. The colonies were fixed with 100% methanol and stained with 0.5% crystal violet. Colony area was quantified with Image J software.

The subject of data set [8] is A549. The data set is described as follows: cells. Conditions: Homo sapiens, A549, read-out: IC50 ± SEM (nM) A549.
The test system of data set [9] is A375/TxR, M14/LCC6MDR1, MDA-MB-231/TxR, PC3/TxR, and DU145/TxR. The data set is described as follows: Cell proliferation inhibition assay (MTS), paclitaxel-resistant panel. The format is cell-based, human. The procedure:
Cell proliferation inhibition assay: The cell proliferation inhibitory effects of tested compounds were first determined through MTS assay as previously described. In short, 3000 to 7500 cells were added to a 96-well cell culture plate followed by the treatment of the test compounds (0.1 nM to 3 μM) in quadruplicate after seeding and overnight incubation. After 72 hours of treatment, MTS (Promega) was added to the wells and the absorbance was measured at […] after incubating for 1.5 to 2 h. […] Briefly, A375/TxR cells (1000 cells/well) were treated with growth medium containing 0.5 nM, 1 nM, or 2 nM of 5v and incubated for over 7 days (the incubation medium was changed every 3 days). After fixing and staining with 0.5% crystal violet, the cell colonies were quantified by the Hybrid Counting module of the Keyence BZ-X700 microscope. The assay was performed in triplicate.

Data set [10] is described as follows: Tolerability assessment of 5v in healthy mice. The format is in vivo.
The subject of data set [11] is PC3/TxR. The data set is described as follows: Cytotoxicity assay (MTS, 72 h). Type of data set: cell-based. The settings on record: Homo sapiens, Table 6, paclitaxel-resistant, read-out: IC50 (nM) Prostate cancer PC3/TxR.
The target in data set [12] is T1, porcine brain tubulin (Sus scrofa, UniProt P02550+P02554).
T1 construct: tubulin mixture containing porcine brain tubulin (3 mg/mL); purchased Cytoskeleton, Inc. T-238P; host or cells: porcine brain
T1 sequence (P02550 whole entry): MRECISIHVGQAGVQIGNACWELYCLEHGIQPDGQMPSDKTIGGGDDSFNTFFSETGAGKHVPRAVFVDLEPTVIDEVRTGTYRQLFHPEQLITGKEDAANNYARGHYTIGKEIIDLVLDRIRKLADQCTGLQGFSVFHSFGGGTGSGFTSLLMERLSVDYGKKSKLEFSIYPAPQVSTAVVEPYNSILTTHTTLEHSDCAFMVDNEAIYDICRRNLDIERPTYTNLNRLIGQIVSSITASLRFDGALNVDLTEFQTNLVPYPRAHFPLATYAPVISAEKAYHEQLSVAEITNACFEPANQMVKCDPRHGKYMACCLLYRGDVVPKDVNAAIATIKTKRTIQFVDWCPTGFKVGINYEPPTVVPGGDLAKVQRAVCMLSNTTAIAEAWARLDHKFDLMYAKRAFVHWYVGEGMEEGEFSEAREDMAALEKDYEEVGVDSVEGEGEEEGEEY
T1 sequence (P02554 whole entry): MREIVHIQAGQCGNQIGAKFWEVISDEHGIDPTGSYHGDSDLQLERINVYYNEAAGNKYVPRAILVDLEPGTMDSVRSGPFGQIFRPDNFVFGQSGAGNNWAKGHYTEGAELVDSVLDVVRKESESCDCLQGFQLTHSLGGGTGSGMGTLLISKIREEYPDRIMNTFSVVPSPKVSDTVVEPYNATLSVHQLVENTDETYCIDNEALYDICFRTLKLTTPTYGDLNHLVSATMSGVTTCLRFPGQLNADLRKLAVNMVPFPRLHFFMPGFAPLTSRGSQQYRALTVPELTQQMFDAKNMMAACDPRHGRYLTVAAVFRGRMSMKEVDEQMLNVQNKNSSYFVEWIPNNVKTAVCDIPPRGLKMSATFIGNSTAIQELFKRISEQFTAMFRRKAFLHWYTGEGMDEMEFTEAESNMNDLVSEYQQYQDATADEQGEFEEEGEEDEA
The data set is described as follows: Tubulin polymerization inhibitory assay (FIG. 29A). The format is biochemical. Conditions: 10 μM, 37° C.; DMSO control 0.3. The procedure: Tubulin polymerization inhibitory assay: In vitro tubulin polymerization assay was carried out according to the manufacturers' instructions (Cytoskeleton). Briefly, 10 μM of 5v was added into tubulin protein (3 mg/mL, purity>99%), and the mixture was transferred into a microplate reader and incubated at 37° C. […] Colchicine and paclitaxel were used as positive controls. […] The assay was carried out in duplicate.

For the compound `COc1ccc2c(c1)NC(=O)CN2c1nc(C)nc2c1CCC2` [Compound 5m, 7-methoxy-4-(2-methyl-6,7-dihydro-5H-cyclopenta[d]pyrimidin-4-yl)-3,4-dihydroquinoxalin-2(1H)-one], the “cell migration / wound healing” value in [1] was “more effectively inhibited wound healing”. In addition, the IC50 in data set [2] lay within 0.52 to 3.2 nM. In data set [3], the “tumor growth of MDA-MB-231/VxR xenografts” value was “flat tumor growth curve”. Besides, the “photon flux in ex vivo brain of representative animal” value in data set [4] (1 minute capture, vehicle 6.01×10^7) was 1.51×10^7 p/s. Besides, the “body weight” value in [4] (Experiment 1) is “maintain body weight through day 24”. The “extracranial metastasis, ex vivo photon flux” value in data set [4] (bone, lungs, spleen) is “statistically reduced metastasis to bone, lungs, and spleen”. Besides, the “adverse effects at initial dose” value in [4] (mouse, in vivo) is “mice lost weight and had diarrhea”. Besides, the “Metabolic stability in human t1/2” value in data set [5] worked out at 0.893 h. Also, in [6] (Intravenous (2 mg/kg)), the “Clearance” value is reported as 36.9 mL/min/kg, the Cmax (commonly the maximum level reached in the sampled fluid or tissue) stood at 806 ng/mL and the “Volume of distribution” value amounted to 23.7 L/kg. The “t1/2” value in data set [6] (Intravenous (2 mg/kg), terminal half-life) is 14.7 h. Besides, the “Cumulative urinary excretion (%)” value in [6] (Intravenous (2 mg/kg), unchanged form) worked out at 0.00134%. Further, in data set [6] (Oral (5 mg/kg)), the “Bioavailability (%)” value was found to be 3.2% and the “Cmax” value is 34.7 ng/mL. Also, in data set [7], the “dose at which colony formation was completely inhibited” value worked out at 1 nM. Further, the IC50 in [8] was determined as 4.5 ± 0.8 nM.

Turning to `CCNc1nc2c(c(N3CC(=O)Nc4cc(OC)ccc43)n1)CCC2` [Compound 5v, 4-(2-(ethylamino)-6,7-dihydro-5H-cyclopenta[d]pyrimidin-4-yl)-7-methoxy-3,4-dihydroquinoxalin-2(1H)-one], the “IC50 level in paclitaxel-resistant cancer cells” value in data set [9] is recorded as “sub-nanomolar level”. Moreover, the “tolerability” value in data set [10] (5 mg/kg IP, five times a week) was “still healthy; also recorded: tolerated at 5 mg/kg IP”; in data set [10] (5 mg/kg and 10 mg/kg IV, 2 times a week) it was “safe and no acute toxicity”; in data set [10] (10 mg/kg IP, five times a week), “toxic to mice; also recorded: not 10 mg/kg IP”. For the same compound, the IC50 in [11] worked out at 0.8 ± 0.1 nM. Further, in data set [12], the “A340 at which tubulin assembly stabilized” value was “approximately 0.05”.
